In ChEMBL document CHEMBL3813700, “New halogenated tris-(phenylalkyl)amines as h5-HT2B receptor ligands” (Bioorg Med Chem Lett, 2016):

Legend:
[1] = target: T1, 5-hydroxytryptamine receptor 2C (Homo sapiens, UniProt P28335); experiment: Displacement of [3H]mesulergine from human 5-HT2C receptor measured after 90 mins by microbeta scintillation counting method
T1 sequence (P28335 whole entry): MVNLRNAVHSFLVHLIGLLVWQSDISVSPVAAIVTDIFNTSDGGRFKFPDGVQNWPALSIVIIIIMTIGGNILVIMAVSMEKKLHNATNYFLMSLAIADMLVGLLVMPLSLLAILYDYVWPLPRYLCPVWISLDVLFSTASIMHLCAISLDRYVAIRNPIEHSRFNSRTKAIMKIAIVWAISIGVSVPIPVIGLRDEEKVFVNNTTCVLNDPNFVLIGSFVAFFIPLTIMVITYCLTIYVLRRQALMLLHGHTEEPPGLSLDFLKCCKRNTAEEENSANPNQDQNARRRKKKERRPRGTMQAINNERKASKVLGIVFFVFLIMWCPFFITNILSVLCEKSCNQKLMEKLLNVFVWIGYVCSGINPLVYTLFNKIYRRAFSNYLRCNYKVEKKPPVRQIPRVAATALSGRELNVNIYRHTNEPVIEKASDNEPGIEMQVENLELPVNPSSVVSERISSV

Homo sapiens [2] = organism: Homo sapiens; experiment: Selectivity index, ratio of Ki for human 5-HT2A receptor to Ki for human 5-HT2B receptor
[3] = target: T2, 5-hydroxytryptamine receptor 2B (Homo sapiens, UniProt P41595); experiment: Displacement of [3H]LSD from human 5-HT2B receptor measured after 90 mins by microbeta scintillation counting method
Homo sapiens [4] = organism: Homo sapiens; experiment: Selectivity index, ratio of Ki for human 5-HT2C receptor to Ki for human 5-HT2B receptor
[5] = target: 5-hydroxytryptamine receptor 2A (Homo sapiens, UniProt P28223); experiment: Displacement of [3H]ketanserin from human 5-HT2A receptor measured after 90 mins by microbeta scintillation counting method
[6] = target: T2, 5-hydroxytryptamine receptor 2B; experiment: Antagonist activity at human 5-HT2B receptor by PDSP assay

5-hydroxytryptamine receptor 2A, sequence (P28223 whole entry): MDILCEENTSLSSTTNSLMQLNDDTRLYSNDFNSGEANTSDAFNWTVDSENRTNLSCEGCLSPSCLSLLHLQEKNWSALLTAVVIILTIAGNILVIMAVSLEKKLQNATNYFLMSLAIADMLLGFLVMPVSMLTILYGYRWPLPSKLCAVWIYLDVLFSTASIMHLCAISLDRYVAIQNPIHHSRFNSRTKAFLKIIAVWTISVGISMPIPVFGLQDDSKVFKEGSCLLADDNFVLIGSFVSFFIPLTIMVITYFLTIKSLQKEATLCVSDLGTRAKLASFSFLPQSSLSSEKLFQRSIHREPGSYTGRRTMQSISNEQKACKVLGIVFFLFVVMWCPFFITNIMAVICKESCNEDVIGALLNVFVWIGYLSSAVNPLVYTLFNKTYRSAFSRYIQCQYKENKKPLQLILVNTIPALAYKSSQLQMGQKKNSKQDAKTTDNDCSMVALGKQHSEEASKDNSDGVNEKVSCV
T2 sequence (P41595 whole entry): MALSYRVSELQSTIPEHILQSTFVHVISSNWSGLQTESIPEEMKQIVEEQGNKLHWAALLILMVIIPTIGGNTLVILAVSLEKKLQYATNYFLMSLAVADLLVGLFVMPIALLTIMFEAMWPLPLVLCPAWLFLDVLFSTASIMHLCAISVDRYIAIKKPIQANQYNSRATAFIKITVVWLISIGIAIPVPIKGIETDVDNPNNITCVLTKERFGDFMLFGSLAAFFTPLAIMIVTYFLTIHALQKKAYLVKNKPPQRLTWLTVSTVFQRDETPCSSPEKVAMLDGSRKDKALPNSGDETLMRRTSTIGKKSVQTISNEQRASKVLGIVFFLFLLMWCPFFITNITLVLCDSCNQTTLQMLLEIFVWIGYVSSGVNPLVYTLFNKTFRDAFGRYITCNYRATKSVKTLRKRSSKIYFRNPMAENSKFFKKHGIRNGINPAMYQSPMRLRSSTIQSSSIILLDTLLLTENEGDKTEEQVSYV

Structure (SMILES)	Ki [1] [nM]	Ratio Ki (Homo sapiens [2])	Ki [3] [nM]	Ratio Ki (Homo sapiens [4])	Ki [5] [nM]	IC50 [6] [nM]
COc1ccc(CCN(CCCc2ccccc2Cl)CCc2ccc3c(c2)OCO3)cc1OC	92	14	3.1	30	43	99
COc1ccc(CCN(CCCc2ccccc2F)CCc2ccc3c(c2)OCO3)cc1OC	79	38	1.7	46	65	135
COc1ccc(CCN(CCCc2cccc(Cl)c2)CCc2ccc3c(c2)OCO3)cc1OC	206	7	17	12	125	–
COc1ccc(CCN(CCCc2ccccc2I)CCc2ccc3c(c2)OCO3)cc1OC	68	6	13	5	75	–
Cn1ccc2cc(NC(=O)Nc3cccnc3)ccc21	–	–	21	–	–	–
COc1ccc(CCN(CCCc2cccc(Br)c2)CCc2ccc3c(c2)OCO3)cc1OC	143	7	14	10	103	–

More lines, now with the values ahead:

Ki [1] [nM]	Ratio Ki (Homo sapiens [2])	Ki [3] [nM]	Ratio Ki (Homo sapiens [4])	Ki [5] [nM]	IC50 [6] [nM]	Structure (SMILES)
224	6	51	4	288	–	COc1ccc(CCN(CCCc2ccc(I)cc2)CCc2ccc3c(c2)OCO3)cc1OC
219	5	45	5	221	–	COc1ccc(CCN(CCCc2ccc(Br)cc2)CCc2ccc3c(c2)OCO3)cc1OC
154	9	18	9	169	–	COc1ccc(CCN(CCCc2cccc(I)c2)CCc2ccc3c(c2)OCO3)cc1OC
167	10	18	9	185	–	COc1ccc(CCN(CCCc2cccc(F)c2)CCc2ccc3c(c2)OCO3)cc1OC
124	16	3.4	36	54	326	COc1ccc(CCN(CCCc2ccccc2Br)CCc2ccc3c(c2)OCO3)cc1OC
235	7	54	4	365	–	COc1ccc(CCN(CCCc2ccc(Cl)cc2)CCc2ccc3c(c2)OCO3)cc1OC
–	6	–	15	–	–	COc1ccc(CCN(CCCc2ccccc2)CCc2ccc3c(c2)OCO3)cc1OC
126	13	14	9	185	–	COc1ccc(CCN(CCCc2ccc(F)cc2)CCc2ccc3c(c2)OCO3)cc1OC
